Consider two compounds from US4322546A, “15-Deoxy-16-hydroxy-16-allenyl prostane derivatives of the E and F series” (American Cyanamid Company, priority 1980, dated 1982).

By ED50 is commonly meant the dose that gives a 50% effect, or the effect in half of the subjects. Read a high ED50 as weaker potency.

Format in all cases: in vivo, Guinea-Pigs
For assay [1], the system named is bronchospasms elicited by intravenous injections of histamine. As to the kind of experiment: bronchodilator activity, Konzett procedure, against histamine-induced bronchospasm. To be noted: Cavia porcellus; three logarithmic cumulative intravenous doses; spasmogen histamine i.v. How it is done: (§1) The bronchodilator activity for representative compounds of this invention was determined in Guinea-Pigs against bronchospasms elicited by intravenous injections of serotonin, histamine, and acetylcholine, by the Konzett procedure, the details of which are discussed by J. Lulling, P. Lievens, F. El Sayed and J. Prignot, Arzeimittel-Forschung 18, 995 (1968).
(§2) In the table which follows, bronchodilator activity for representative compounds of the invention against spasmogenic agents serotonin, histamine, and acetylcholine is expressed as an ED50 determined from the results obtained with three logarithmic cumulative intravenous doses.

In assay [2] the test system is bronchospasms elicited by intravenous injections of serotonin. As to the kind of experiment: bronchodilator activity, Konzett procedure, against serotonin-induced bronchospasm. As to conditions: Cavia porcellus; three logarithmic cumulative intravenous doses; spasmogen serotonin i.v. The protocol: as §1, §2
Assay [3] has as its system bronchospasms elicited by intravenous injections of acetylcholine. The experiment in a line: bronchodilator activity, Konzett procedure, against acetylcholine-induced bronchospasm. As to conditions: Cavia porcellus; three logarithmic cumulative intravenous doses; spasmogen acetylcholine i.v. How it is done:
as §1, §2

In the case of `C=C=CC(O)(C/C=C/[C@H]1[C@H](O)CC(=O)[C@@H]1CCCCCCC(=O)O)CCCC` (relative stereo) [dl 15-deoxy-16-hydroxy-16-allenyl-PGE1, dl-11α,16-dihydroxy-9-oxo-16-allenyl-13-trans prostenoic acid], the ED50 in assay [1] is 1 µg/kg; in assay [2], 1.05 µg/kg; in assay [3], 1.2 µg/kg.

Consider `C=C=CC(O)(C/C=C/[C@H]1[C@H](O)CC(=O)[C@@H]1C/C=C\CCCC(=O)O)CCCC` (relative stereo) [dl 15-deoxy-16-hydroxy-16-allenyl-PGE2, dl-11α,16-dihydroxy-9-oxo-16-allenyl-5-cis-13-trans prostadienoic acid], for which the ED50 in assay [1] amounted to 1 µg/kg; in assay [2] it was 1.4 µg/kg; in assay [3], 1.2 µg/kg.
